# ChEMBL document CHEMBL4219090, “Synthesis and biological evaluation of polyhydroxylated oxindole derivatives as potential antileishmanial agent” (Bioorg Med Chem Lett, 2018)
# Activity calls are given as the source filed them. No cut-off for these calls is given here.
# Assays:
# Leishmania donovani [1] = assay: Antileishmanial activity against Leishmania donovani MHOM/IN/1983/AG83 promastigotes transformed from splenic intracellular amastigotes of infected BALB/c mouse after 48 hrs by MTT assay; type: functional, organism-based; details: MHOM/IN/1983/AG83, 48 h
# Leishmania donovani [2] = assay: Antileishmanial activity against Leishmania donovani MHOM/IN/1983/AG83 promastigotes transformed from splenic intracellular amastigotes of infected BALB/c mouse assessed as parasite survival at 8 uM after 48 hrs by MTT assay (reference value: 100%); type: functional; details: MHOM/IN/1983/AG83, 48 h
# Leishmania donovani [3] = assay: Antileishmanial activity against Leishmania donovani MHOM/IN/1983/AG83 promastigotes transformed from splenic intracellular amastigotes of infected BALB/c mouse assessed as parasite survival at 16 uM after 48 hrs by MTT assay (reference value: 100%); type: functional; details: MHOM/IN/1983/AG83, 48 h
# Leishmania donovani [4] = assay: Antileishmanial activity against Leishmania donovani MHOM/IN/1983/AG83 promastigotes transformed from splenic intracellular amastigotes of infected BALB/c mouse assessed as parasite survival at 32 uM after 48 hrs by MTT assay (reference value: 100%); type: functional; details: MHOM/IN/1983/AG83, 48 h
# Leishmania donovani [5] = assay: Cell cycle arrest in Leishmania donovani MHOM/IN/1983/AG83 promastigotes transformed from splenic intracellular amastigotes of infected BALB/c mouse assessed as accumulation at sub-G0/G1 phase at IC50 after 48 hrs by propidium iodide staining-based flow cytometric analysis (reference value: 2.61 +/- 0.33%); type: functional
# Leishmania donovani [6] = assay: Cell cycle arrest in Leishmania donovani MHOM/IN/1983/AG83 promastigotes transformed from splenic intracellular amastigotes of infected BALB/c mouse assessed as accumulation at sub-G0/G1 phase at IC50 after 24 hrs by propidium iodide staining-based flow cytometric analysis (reference value: 2.61 +/- 0.33%); type: functional
# Leishmania donovani [7] = assay: Cell cycle arrest in Leishmania donovani MHOM/IN/1983/AG83 promastigotes transformed from splenic intracellular amastigotes of infected BALB/c mouse assessed as accumulation at G0/G1 phase at IC50 after 48 hrs by propidium iodide staining-based flow cytometric analysis (reference value: 81.06%); type: functional
# Leishmania donovani [8] = assay: Cell cycle arrest in Leishmania donovani MHOM/IN/1983/AG83 promastigotes transformed from splenic intracellular amastigotes of infected BALB/c mouse assessed as accumulation at sub-G0/G1 phase at IC50 by propidium iodide staining-based flow cytometric analysis; type: functional, organism-based; details: TDE = time-dependent effect
# Leishmania donovani [9] = assay: Induction of ROS generation in Leishmania donovani MHOM/IN/1983/AG83 promastigotes transformed from splenic intracellular amastigotes of infected BALB/c mouse at IC50 by H2DCFDA probe-based flow cytometric analysis; type: functional, organism-based; details: TDE = time-dependent effect
# Leishmania donovani [10] = assay: Induction of apoptosis in Leishmania donovani MHOM/IN/1983/AG83 promastigotes transformed from splenic intracellular amastigotes of infected BALB/c mouse assessed as viable cells at 15 uM after 24 hrs by Annexin V-PE/7-AAD staining-based flow cytometric analysis relative to control; type: functional
# Leishmania donovani [11] = assay: Induction of apoptosis in Leishmania donovani MHOM/IN/1983/AG83 promastigotes transformed from splenic intracellular amastigotes of infected BALB/c mouse assessed as early apoptotic cells at 15 uM after 24 hrs by Annexin V-PE/7-AAD staining-based flow cytometric analysis relative to control; type: functional
# Leishmania donovani [12] = assay: Induction of apoptosis in Leishmania donovani MHOM/IN/1983/AG83 promastigotes transformed from splenic intracellular amastigotes of infected BALB/c mouse assessed as late apoptotic cells at 15 uM after 24 hrs by Annexin V-PE/7-AAD staining-based flow cytometric analysis relative to control; type: functional
# Leishmania donovani [13] = assay: Induction of apoptosis in Leishmania donovani MHOM/IN/1983/AG83 promastigotes transformed from splenic intracellular amastigotes of infected BALB/c mouse assessed as necrotic cells at 15 uM after 24 hrs by Annexin V-PE/7-AAD staining-based flow cytometric analysis relative to control; type: functional
# Leishmania donovani [14] = assay: Induction of apoptosis in Leishmania donovani MHOM/IN/1983/AG83 promastigotes transformed from splenic intracellular amastigotes of infected BALB/c mouse assessed as viable cells at 15 uM after 48 hrs by Annexin V-PE/7-AAD staining-based flow cytometric analysis (reference value: 84.97%); type: functional
# Leishmania donovani [15] = assay: Induction of apoptosis in Leishmania donovani MHOM/IN/1983/AG83 promastigotes transformed from splenic intracellular amastigotes of infected BALB/c mouse assessed as early apoptotic cells at 15 uM after 48 hrs by Annexin V-PE/7-AAD staining-based flow cytometric analysis (reference value: 10.98 +/- 1.22%); type: functional
# Leishmania donovani [16] = assay: Induction of apoptosis in Leishmania donovani MHOM/IN/1983/AG83 promastigotes transformed from splenic intracellular amastigotes of infected BALB/c mouse assessed as late apoptotic cells at 15 uM after 48 hrs by Annexin V-PE/7-AAD staining-based flow cytometric analysis (reference value: 2.55 +/- 0.49%); type: functional
# Leishmania donovani [17] = assay: Induction of apoptosis in Leishmania donovani MHOM/IN/1983/AG83 promastigotes transformed from splenic intracellular amastigotes of infected BALB/c mouse assessed as necrotic cells at 15 uM after 48 hrs by Annexin V-PE/7-AAD staining-based flow cytometric analysis (reference value: 1.51%); type: functional
# Leishmania donovani [18] = assay: Induction of apoptosis in Leishmania donovani MHOM/IN/1983/AG83 promastigotes transformed from splenic intracellular amastigotes of infected BALB/c mouse assessed as chromatin condensation after 48 hrs by DAPI staining-based confocal laser scanning microscopic analysis; type: functional, organism-based
# Leishmania donovani [19] = assay: Induction of apoptosis in Leishmania donovani MHOM/IN/1983/AG83 promastigotes transformed from splenic intracellular amastigotes of infected BALB/c mouse assessed as nuclei blebbing after 48 hrs by DAPI staining-based confocal laser scanning microscopic analysis; type: functional, organism-based
# Leishmania donovani [20] = assay: Induction of apoptosis in Leishmania donovani MHOM/IN/1983/AG83 promastigotes transformed from splenic intracellular amastigotes of infected BALB/c mouse assessed as accumulation of lipid droplets in cytoplasm after 48 hrs by Nile red staining-based confocal laser scanning microscopic analysis; type: functional, organism-based
# Leishmania donovani [21] = assay: Antileishmanial activity against Leishmania donovani MHOM/IN/1983/AG83 amastigotes infected in BALB/c mouse peritoneal macrophages at 1 uM after 48 hrs by phase contrast microscopic analysis relative to control; type: functional
# Leishmania donovani [22] = assay: Induction of nitric oxide generation in Leishmania donovani MHOM/IN/1983/AG83 amastigotes infected in BALB/c mouse peritoneal macrophages at IC50 by Griess reagent based analysis relative to control; type: functional
# [23] = Cytotoxicity against PHA-stimulated mouse splenocytes assessed as cell survival at 8 uM after 96 hrs by MTT assay (reference value: 100%); type: cell-based, Splenocyte; details: read-out: Survival
# [24] = Cytotoxicity against PHA-stimulated mouse splenocytes assessed as cell survival at 16 uM after 96 hrs by MTT assay (reference value: 100%); type: cell-based, Splenocyte; details: read-out: Survival
# [25] = Cytotoxicity against PHA-stimulated mouse splenocytes assessed as cell survival at 32 uM after 96 hrs by MTT assay (reference value: 100%); type: cell-based, Splenocyte; details: read-out: Survival
# [26] = Cytotoxicity against PHA-stimulated mouse splenocytes assessed as cell survival at 64 uM after 96 hrs by MTT assay (reference value: 100%); type: cell-based, Splenocyte; details: read-out: Survival
# [27] = Cytotoxicity against PHA-stimulated mouse splenocytes assessed as cell survival at 128 uM after 96 hrs by MTT assay (reference value: 100%); type: cell-based, Splenocyte; details: read-out: Survival
# Leishmania donovani [28] = assay: Antileishmanial activity against Leishmania donovani MHOM/IN/1983/AG83 promastigotes transformed from splenic intracellular amastigotes of infected BALB/c mouse assessed as parasite survival at 64 uM after 48 hrs by MTT assay (reference value: 100%); type: functional; details: MHOM/IN/1983/AG83, 48 h
# Leishmania donovani [29] = assay: Antileishmanial activity against Leishmania donovani MHOM/IN/1983/AG83 promastigotes transformed from splenic intracellular amastigotes of infected BALB/c mouse assessed as parasite survival at 128 uM after 48 hrs by MTT assay (reference value: 100%); type: functional; details: MHOM/IN/1983/AG83, 48 h
# Leishmania donovani [30] = assay: Induction of ROS generation in Leishmania donovani MHOM/IN/1983/AG83 promastigotes transformed from splenic intracellular amastigotes of infected BALB/c mouse at IC50 measured at 6 hrs by H2DCFDA probe-based flow cytometric analysis relative to control; type: functional
# Leishmania donovani [31] = assay: Induction of apoptosis in Leishmania donovani MHOM/IN/1983/AG83 promastigotes transformed from splenic intracellular amastigotes of infected BALB/c mouse assessed as early apoptotic cells at 15 uM by Annexin V-PE/7-AAD staining-based flow cytometric analysis; type: functional, organism-based; details: TDE = time-dependent effect
# Leishmania donovani [32] = assay: Induction of apoptosis in Leishmania donovani MHOM/IN/1983/AG83 promastigotes transformed from splenic intracellular amastigotes of infected BALB/c mouse assessed as late apoptotic cells at 15 uM by Annexin V-PE/7-AAD staining-based flow cytometric analysis; type: functional, organism-based; details: TDE = time-dependent effect
# Leishmania donovani [33] = assay: Antileishmanial activity against Leishmania donovani MHOM/IN/1983/AG83 promastigotes transformed from splenic intracellular amastigotes of infected BALB/c mouse after 48 hrs by […]; type: functional, organism-based; details: MHOM/IN/1983/AG83, 48 h
smiles,measurement,setting,value
COc1ccc(CN2C(=O)C(=C(c3ccc(O)cc3)c3ccc(O)cc3)c3cc(/C=C/c4ccc(C)c(C)c4)ccc32)cc1,IC50,Leishmania donovani [1],225 µM
same,survival at 8 µM,Leishmania donovani [2],97.2%
same,survival at 16 µM,Leishmania donovani [3],95.5%
same,survival at 32 µM,Leishmania donovani [4],93.7%
COc1ccc(CN2C(=O)C(=C(c3ccc(O)cc3)c3ccc(O)cc3)c3cc(/C=C/c4ccc(OC)c(OC)c4)ccc32)cc1,IC50,Leishmania donovani [1],31 µM
same,survival at 8 µM,Leishmania donovani [2],79.2%
same,survival at 16 µM,Leishmania donovani [3],70.6%
same,survival at 32 µM,Leishmania donovani [4],53.7%
O=C1C(=C(c2ccc(O)cc2)c2ccc(O)cc2)c2cc(/C=C/c3ccc(O)c(O)c3)ccc2N1Cc1ccc(O)cc1,IC50,Leishmania donovani [1],15 µM
same,Activity,Leishmania donovani [5],8.86%
same,Activity,Leishmania donovani [6],6.79 - 6.97%
same,Activity,Leishmania donovani [7],71.37%
same,Activity,Leishmania donovani [8],Tde
same,Activity,Leishmania donovani [9],Tde
same,Activity,Leishmania donovani [10],45.2%
same,Activity,Leishmania donovani [11],35.01%
same,Activity,Leishmania donovani [12],14.76%
same,Activity,Leishmania donovani [13],5.03%
same,Activity,Leishmania donovani [14],38.43%
same,Activity,Leishmania donovani [15],42.08%
same,Activity,Leishmania donovani [16],15.39%
same,Activity,Leishmania donovani [17],4.09%
same,Activity,Leishmania donovani [18],Active
same,Activity,Leishmania donovani [19],Active
same,Activity,Leishmania donovani [20],Active
same,Activity,Leishmania donovani [21],50%
same,fold change (FC),Leishmania donovani [22],3
same,"viability at 96 h, 8 µM",[23],96.6%
same,"viability at 96 h, 16 µM",[24],92.3%
same,"viability at 96 h, 32 µM",[25],90.5%
same,"viability at 96 h, 64 µM",[26],87.3%
same,"viability at 96 h, 128 µM",[27],85.2%
same,survival at 8 µM,Leishmania donovani [2],96.2%
same,survival at 16 µM,Leishmania donovani [3],46.7%
same,survival at 32 µM,Leishmania donovani [4],31.6%
same,survival at 64 µM,Leishmania donovani [28],17.9%
same,survival at 128 µM,Leishmania donovani [29],5.42%
same,fold change (FC),Leishmania donovani [30],>3
same,Activity,Leishmania donovani [31],Tde
same,Activity,Leishmania donovani [32],Tde
O=C1C(=C(c2ccc(O)cc2)c2ccc(O)cc2)c2ccccc2N1Cc1ccc(O)cc1,IC50,Leishmania donovani [1],200 µM
same,survival at 8 µM,Leishmania donovani [2],98.3%
same,survival at 16 µM,Leishmania donovani [3],96.7%
same,survival at 32 µM,Leishmania donovani [4],92%
COc1ccc(CN2C(=O)C(=C(c3ccc(O)cc3)c3ccc(O)cc3)c3ccccc32)cc1,IC50,Leishmania donovani [1],47.2 µM
same,survival at 8 µM,Leishmania donovani [2],96.4%
same,survival at 16 µM,Leishmania donovani [3],81%
same,survival at 32 µM,Leishmania donovani [4],66.1%
CCCCCCCCCCCCCCCCOP(=O)([O-])OCC[N+](C)(C)C [MILTEFOSINE],IC50,Leishmania donovani [1],21 µM
same,IC50,Leishmania donovani [33],21 µM
COc1ccc(CN2C(=O)C(=C(c3ccc(O)cc3)c3ccc(O)cc3)c3cc(/C=C/c4ccc(F)c(F)c4)ccc32)cc1,IC50,Leishmania donovani [1],220 µM
same,survival at 8 µM,Leishmania donovani [2],97.5%
same,survival at 16 µM,Leishmania donovani [3],96%
same,survival at 32 µM,Leishmania donovani [4],93.2%
